What all share (format): in vivo
The subject of assay [1] is Kochia (Kochia scoparia). Kind of assay: Test A preemergence. Particulars: Bassia scoparia, pre-emergence, 240 h; for pest or weed control at 125 g/ha: 125 g ai/ha, visual rating after approx. 10 d, 0 to 100 scale where 0 is no effect and 100 is complete control; for pest or weed control at 500 g/ha: 500 g ai/ha. Put shortly:
(§1)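 Each rating is a visual injury score from 0 to 100 given about 10 d after treatment, judged against untreated controls kept alongside in the greenhouse. In loam soil–sand blend, seeds got a preemergence directed soil spray, while postemergence plants were 2 to 10 cm tall at spraying.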

The test system of assay [2] is barnyardgrass (Echinochloa crus-galli). Kind of assay: Test A preemergence. The settings on record: Echinochloa crus-galli, pre-emergence, 240 h; for pest or weed control at 125 g/ha: 125 g ai/ha, visual rating after approx. 10 d, 0 to 100 scale where 0 is no effect and 100 is complete control; for pest or weed control at 500 g/ha: 500 g ai/ha. The procedure, abridged: as §1

The test system of assay [3] is giant foxtail (Setaria faberii). Kind of assay: Test A preemergence. Particulars: Setaria faberi, pre-emergence, 240 h; for pest or weed control at 125 g/ha: 125 g ai/ha, visual rating after approx. 10 d, 0 to 100 scale where 0 is no effect and 100 is complete control; for pest or weed control at 500 g/ha: 500 g ai/ha. The procedure, abridged: as §1
In assay [4] the test system is pigweed (Amaranthus retroflexus). Put plainly: Test A preemergence. The settings on record: Amaranthus retroflexus, pre-emergence, 240 h; for pest or weed control at 125 g/ha: 125 g ai/ha, visual rating after approx. 10 d, 0 to 100 scale where 0 is no effect and 100 is complete control; for pest or weed control at 500 g/ha: 500 g ai/ha.
The subject of assay [5] is ragweed (common ragweed, Ambrosia elatior). Put plainly: Test A preemergence. Particulars: Ambrosia artemisiifolia, pre-emergence, 240 h; for pest or weed control at 125 g/ha: 125 g ai/ha, visual rating after approx. 10 d, 0 to 100 scale where 0 is no effect and 100 is complete control; for pest or weed control at 500 g/ha: 500 g ai/ha. The procedure, abridged: as §1
Assay [6] relates to ryegrass, Italian (Italian ryegrass, Lolium multiflorum). Put plainly: Test A preemergence. The settings on record: Lolium multiflorum, pre-emergence, 240 h; for pest or weed control at 125 g/ha: 125 g ai/ha, visual rating after approx. 10 d, 0 to 100 scale where 0 is no effect and 100 is complete control; for pest or weed control at 500 g/ha: 500 g ai/ha. Put shortly:
as §1

Assay [7] relates to Galium (catchweed bedstraw, Galium aparine). Kind of assay: Test A postemergence. Particulars: Galium, post-emergence, 240 h, 125 g ai/ha, postemergence; visual injury after approximately 10 d; 0 to 100 scale (0 no effect, 100 complete control); read-out: Plant response rating, Galium. The procedure, abridged: as §1
Assay [8] relates to Kochia (Kochia scoparia). Kind of assay: Test A postemergence. The settings on record: Bassia scoparia, post-emergence, 240 h, 125 g ai/ha, postemergence; visual injury after approximately 10 d; 0 to 100 scale (0 no effect, 100 complete control); read-out: Plant response rating, Kochia. Put shortly: as §1
In assay [9] the test system is barnyardgrass (Echinochloa crus-galli). Kind of assay: Test A postemergence. Particulars: Echinochloa crus-galli, post-emergence, 240 h, 125 g ai/ha, postemergence; visual injury after approximately 10 d; 0 to 100 scale (0 no effect, 100 complete control); read-out: Plant response rating, Barnyardgrass. Put shortly: as §1
The subject of assay [10] is blackgrass (Alopecurus myosuroides). Kind of assay: Test A postemergence. Particulars: Alopecurus myosuroides, post-emergence, 240 h, 125 g ai/ha, postemergence; visual injury after approximately 10 d; 0 to 100 scale (0 no effect, 100 complete control); read-out: Plant response rating, Blackgrass. Put shortly:
as §1

The next assay has as its system corn (Zea mays). Put plainly: Test A postemergence. The settings on record: Zea mays, post-emergence, 240 h, 125 g ai/ha, postemergence; visual injury after approximately 10 d; 0 to 100 scale (0 no effect, 100 complete control). Put shortly:
as §1

The subject of assay [11] is giant foxtail (Setaria faberii). Put plainly: Test A postemergence. The settings on record: Setaria faberi, post-emergence, 240 h, 125 g ai/ha, postemergence; visual injury after approximately 10 d; 0 to 100 scale (0 no effect, 100 complete control); read-out: Plant response rating, Foxtail, Giant. Put shortly:
as §1

Assay [12] has as its system pigweed (Amaranthus retroflexus). Kind of assay: Test A postemergence. The settings on record: Amaranthus retroflexus, post-emergence, 240 h, 125 g ai/ha, postemergence; visual injury after approximately 10 d; 0 to 100 scale (0 no effect, 100 complete control); read-out: Plant response rating, Pigweed. The procedure, abridged: as §1
Assay [13] has as its system ragweed (common ragweed, Ambrosia elatior). Kind of assay: Test A postemergence. The settings on record: Ambrosia artemisiifolia, post-emergence, 240 h, 125 g ai/ha, postemergence; visual injury after approximately 10 d; 0 to 100 scale (0 no effect, 100 complete control); read-out: Plant response rating, Ragweed. The procedure, abridged:
as §1

Assay [14] deals with ryegrass, Italian (Italian ryegrass, Lolium multiflorum). Put plainly: Test A postemergence. Particulars: Lolium multiflorum, post-emergence, 240 h, 125 g ai/ha, postemergence; visual injury after approximately 10 d; 0 to 100 scale (0 no effect, 100 complete control); read-out: Plant response rating, Ryegrass, Italian. Put shortly:
as §1

Assay [15] deals with wheat (Triticum aestivum). Put plainly: Test A postemergence. Particulars: Triticum aestivum, post-emergence, 240 h, 125 g ai/ha, postemergence; visual injury after approximately 10 d; 0 to 100 scale (0 no effect, 100 complete control); read-out: Plant response rating, Wheat. The procedure, abridged: as §1
Setting [16] is: preemergence, read-out: Plant response rating, Kochia.
[17] abbreviates: preemergence, read-out: Plant response rating, Barnyardgrass.
Where [18] appears, read: preemergence, read-out: Plant response rating, Foxtail, Giant.
Setting [19] is: preemergence, read-out: Plant response rating, Pigweed.
The mark [20] stands for this setting: preemergence, read-out: Plant response rating, Ragweed.
The mark [21] stands for this setting: preemergence, read-out: Plant response rating, Ryegrass, Italian.

Where two headings read alike, the source gives them in different places.

As for `CC(F)(F)c1cccc([C@H]2CNC(=O)[C@@H]2C(=O)Nc2ccc(F)cc2F)c1` [Compound 781], the pest or weed control at 125 g/ha with Kochia (Kochia scoparia) [1] (setting [16]) is 50%; in [2] (setting [17]) it was 80%; in assay [3] (setting [18]), 90%; in assay [4] (setting [19]), 0%; in assay [5] (setting [20]) it was 0%; in [6] (setting [21]), 20%. Further, the pest or weed control at 125 g/ha in [7] was 60%; in the assay on Kochia (Kochia scoparia) [8] it was 0%; in [9], 90%; in assay [10], 70%; in [11], 80%; in [12] it was 0%. For the same molecule, the results for the pest or weed control at 125 g/ha in assay [13] and in assay [14] were 0% and 20%, respectively. The pest or weed control at 500 g/ha in the assay with Kochia (Kochia scoparia) [1] (Preemergence, visual injury vs untreated controls after approximately 10 d, read-out: Kochia plant response rating (0 to 100 scale where 0 is no effect and 100 is complete control)) stood at 90%; in [2] (Preemergence, visual injury vs untreated controls after approximately 10 d, read-out: Barnyardgrass plant response rating (0 to 100 scale where 0 is no effect and 100 is complete control)), 100%; in [3] (Preemergence, visual injury vs untreated controls after approximately 10 d, read-out: Foxtail, Giant plant response rating (0 to 100 scale where 0 is no effect and 100 is complete control)), 100%; in assay [4] (Preemergence, visual injury vs untreated controls after approximately 10 d, read-out: Pigweed plant response rating (0 to 100 scale where 0 is no effect and 100 is complete control)), 70%; in assay [5] (Preemergence, visual injury vs untreated controls after approximately 10 d, read-out: Ragweed plant response rating (0 to 100 scale where 0 is no effect and 100 is complete control)), 0%; in [6] (Preemergence, visual injury vs untreated controls after approximately 10 d, read-out: Ryegrass, Italian plant response rating (0 to 100 scale where 0 is no effect and 100 is complete control)) it was 50%. Further, in the assay on corn (Zea mays), the Corn plant response rating (crop injury, 0 = no effect, 100 = complete kill) at 125 g/ha was found to be 60%. Further, in [15], the plant injury at 125 g/ha was determined as 50%.
Regarding `O=C1NC[C@H](c2ccc(C(F)(F)F)cc2)[C@H]1C(=O)Nc1ccccc1C1CC1` [Compound 746], the pest or weed control at 125 g/ha with Kochia (Kochia scoparia) [1] (setting [16]) was determined as 0%; in [2] (setting [17]), 0%; in assay [3] (setting [18]), 80%; in [4] (setting [19]), 0%; in assay [5] (setting [20]), 0%; in assay [6] (setting [21]), 0%. In addition, the pest or weed control at 125 g/ha amounted to 50% in assay [7]; 0% with Kochia (Kochia scoparia) [8]; 20% in assay [9]; 20% in assay [10]; 50% in assay [11]; 0% in assay [12]. In addition, the pest or weed control at 125 g/ha in [13] and in assay [14] was 0% throughout. Further, the pest or weed control at 500 g/ha stood at 60% with Kochia (Kochia scoparia) [1] (preemergence, 0 to 100 scale, 0 = no effect, 100 = complete control, read-out: Plant response rating, Kochia); 0% in assay [2] (preemergence, 0 to 100 scale, 0 = no effect, 100 = complete control, read-out: Plant response rating, Barnyardgrass); 90% in [3] (preemergence, 0 to 100 scale, 0 = no effect, 100 = complete control, read-out: Plant response rating, Foxtail, Giant); 20% in [4] (preemergence, 0 to 100 scale, 0 = no effect, 100 = complete control, read-out: Plant response rating, Pigweed); 0% in assay [5] (preemergence, 0 to 100 scale, 0 = no effect, 100 = complete control, read-out: Plant response rating, Ragweed); 40% in assay [6] (preemergence, 0 to 100 scale, 0 = no effect, 100 = complete control, read-out: Plant response rating, Ryegrass, Italian). This molecule also yielded a Corn plant response rating (crop injury, 0 = no effect, 100 = complete kill) at 125 g/ha in the assay on corn (Zea mays) of 0%. In [15], the plant injury at 125 g/ha stood at 0%.

(Values after US12077503B2, “Substituted cyclic amides and their use as herbicides” (FMC CORPORATION, priority 2015, dated 2024).)
